Key:
[1] = test system: KRAS G12C mutant MIA PaCa-2 cells; assay: Cell proliferation inhibition experiment, 3D spheroid, CellTiter-Glo, MIA PaCa-2; type: cell-based, human; conditions: Homo sapiens, MIA PaCa-2, 120 h, 3D cell model in 384-well spheroid plate, 5 days, CellTiter-Glo; read-out: MIA-PaCa2 IC50
Procedure, shortened: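 200 MIA PaCa-2 cells/well grown overnight as 3D spheroids, then exposed to 3.16-fold compound dilutions (0.1% DMSO final) for 5 days. Viability read by CellTiter-Glo luminescence; inhibition calculated against DMSO and medium-only controls, and IC50 fitted by four-parameter model.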

[2] = test system: KRAS G12C mutant NCI-H358 cells; assay: Cell proliferation inhibition experiment, 3D spheroid, CellTiter-Glo, NCI-H358; type: cell-based, human; conditions: Homo sapiens, NCI-H358, 120 h, NCI-H358 (KRAS G12C mutant) 3D spheroid, 5 days with compound, CellTiter-Glo; read-out: H358 IC50
Procedure, shortened: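 NCI-H358 (800 cells/well, RPMI-1640) and A549 (400 cells/well, F-12K) grown overnight as 3D spheroids in 2% FBS medium, then exposed 5 days to 3.16-fold compound dilutions at 0.1% DMSO. Viability measured by CellTiter-Glo luminescence; inhibition relative to DMSO and medium blank, IC50 from four-parameter fit.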

IC50 [1]	IC50 [2]	Compound
> 1 µM	0.305 µM	C=CC(=O)N1CCN2C(=O)c3c(N4CC(C(=O)O)CC4(C)C)nc(-c4c(O)cccc4F)c(Cl)c3OC[C@H]2C1 (stereo partly drawn) [Z458, 1-((6aR)-8-acryloyl-4-chloro-3-(2-fluoro-6-hydroxyphenyl)-12-oxo-6,6a,7,8,9,10-hexahydro-12H-pyrazino[2,1-c]pyrido[3,4-f][1,4]oxazepin-1-yl)-5,5-dimethylpyrrolidine-3-carboxylic acid]
0.071 µM	0.017 µM	C=CC(=O)N1CCN2C(=O)c3c(N4CCCC45CC5)nc(-c4c(O)cccc4F)c(Cl)c3OC[C@H]2C1 [Z56, (6aR)-8-acryloyl-4-chloro-3-(2-fluoro-6-hydroxyphenyl)-1-(4-azaspiro[2.4]heptan-4-yl)-6,6a,7,8,9,10-hexahydro-12H-pyrazino[2,1-c]pyrido[3,4-f][1,4]oxazepin-12-one]
0.02 µM	0.009 µM	C=CC(=O)N1CCN2C(=O)c3c(N4CCC5CC54)nc(-c4c(O)cccc4F)c(Cl)c3OC[C@H]2C1 (stereo partly drawn) [Z39, (6aR)-8-acryloyl-1-(2-azabicyclo[3.1.0]hexart-2-yl)-4-chloro-3-(2-fluoro-6-hydroxyphenyl)-6,6a,7,8,9,10-hexahydro-12H-pyrazino[2,1-c]pyrido[3,4-f][1,4]oxazepin-12-one]
0.007 µM	0.004 µM	C=CC(=O)N1CCN2C(=O)c3c(N4CCC[C@@H]4C)nc(-c4c(O)cccc4F)c(Cl)c3OC[C@H]2C1 [Z49, (6aR)-8-acryloyl-1-((S)-2-methylpyrrolidin-1-yl)-4-chloro-3-(2-fluoro-6-hydroxyphenyl)-6,6a,7,8,9,10-hexahydro-12H-pyrazino[2,1-c]pyrido[3,4-f][1,4]oxazepin-12-one]
0.0112 µM	0.0026 µM	C=CC(=O)N1CCN2C(=O)c3c(N4CC(N(C)CCO)CC4(C)C)nc(-c4ccccc4F)c(Cl)c3OC[C@H]2C1 (stereo partly drawn) [Z658, (6aR)-8-acryloyl-4-chloro-3-(2-fluorophenyl)-1-(4-((2-hydroxyethyl)(methyl)amino)-2,2-dimethylpyrrolidin-1-yl)-6,6a,7,8,9,10-hexahydro-12H-pyrazino[2,1-c]pyrido[3,4-f][1,4]oxazepin-12-one]
0.007 µM	0.0095 µM	C=CC(=O)N1CCN2C(=O)c3c(N4CCN(C)C[C@@H]4C)nc(-c4c(N)cccc4F)c(Cl)c3OC[C@H]2C1 [Z503, (6aR)-8-acryloyl-3-(2-amino-6-fluorophenyl)-4-chloro-1-((S)-2,4-dimethylpiperazin-1-yl)-6,6a,7,8,9,10-hexahydro-12H-pyrazino[2,1-c]pyrido[3,4-f][1,4]oxazepin-12-one]
0.0112 µM	0.0039 µM	C=CC(=O)N1CCN2C(=O)c3c(N4CCN(C)C[C@@H]4C)nc(-c4c(O)cccc4Cl)c(Cl)c3OC[C@H]2C1 [Z452, (6aR)-8-acryloyl-4-chloro-3-(2-chloro-6-hydroxyphenyl)-1-((S)-2,4-dimethylpiperazin-1-yl)-6,6a,7,8,9,10-hexahydro-12H-pyrazino[2,1-c]pyrido[3,4-f][1,4]oxazepin-12-one]
	0.0081 µM	C=CC(=O)N1CCN2C(=O)c3c(N4CCN(C(=O)CC)C[C@@H]4C)nc(-c4ccccc4F)c(Cl)c3OC[C@H]2C1 [Z477, (R)-8-acryloyl-4-chloro-3-(2-fluorophenyl)-1-((S)-2-methyl-4-propionylpiperazin-1-yl)-6,6a,7,8,9,10-hexahydro-12H-pyrazino[2,1-c]pyrido[3,4-f][1,4]oxazepin-12(6aH)-one]

Continued, compound first:

Compound	IC50 [1]	IC50 [2]
C=CC(=O)N1CCN2C(=O)c3c(N4C[C@H](N5CC(F)(F)C5)CC4(C)C)nc(-c4ccccc4F)c(Cl)c3OC[C@H]2C1 (single isomer, unassigned) [Z525-1]	0.478 µM	0.281 µM
C=CC(=O)N1CCN2C(=O)c3c(N4C[C@H](N5CCN(C)CC5)CC4(C)C)nc(-c4ccccc4F)c(Cl)c3OC[C@H]2C1 (single isomer, unassigned) [Z454-2]	0.0168 µM	0.0072 µM
C=CC(=O)N1CCN2C(=O)c3c(N4C[C@@H](N5CCC5)CC4(C)C)nc(-c4ccccc4F)c(Cl)c3OC[C@H]2C1 (single isomer, unassigned) [Z471-1]	0.042 µM	0.007 µM
C=CC(=O)N1CCN2C(=O)c3c(N4C[C@H](N(C)CCO)CC4(C)C)nc(-c4ccccc4F)c(Cl)c3OC[C@H]2C1 (single isomer, unassigned) [Z658-2]	0.031 µM	0.012 µM
C=CC(=O)N1CCN2C(=O)c3c(N4CC(O)CC4(C)C)nc(-c4ccccc4Cl)c(F)c3OC[C@H]2C1 (stereo partly drawn) [Z414-1, (6aR)-8-acryloyl-3-(2-chlorophenyl)-4-fluoro-1-(4-hydroxy-2,2-dimethylpyrrolidin-1-yl)-6,6a,7,8,9,10-hexahydro-12H-pyrazino[2,1-c]pyrido[3,4-f][1,4]oxazepin-12-one]	0.127 µM	0.019 µM
C=CC(=O)N1CCN2C(=O)c3c(N4C[C@@H](N(C)C)CC4(C)C)nc(-c4ccccc4F)c(Cl)c3OC[C@H]2C1 [Z453-1, (R)-8-acryloyl-4-chloro-1-((S)-4-(dimethylamino)-2,2-dimethylpyrrolidin-1-yl)-3-(2-fluorophenyl)-6,6a,7,8,9,10-hexahydro-12H-pyrazino[2,1-c]pyrido[3,4-f][1,4]oxazepin-12-one]	0.014 µM	0.006 µM
C=CC(=O)N1CCN2C(=O)c3c(N4C[C@@H](N5CC(F)(F)C5)CC4(C)C)nc(-c4ccccc4F)c(Cl)c3OC[C@H]2C1 (single isomer, unassigned) [Z525-2]	0.014 µM	0.0078 µM
C=CC(=O)N1CCN2C(=O)c3c(N4CC[C@@H](N(C)C)C4(C)C)nc(-c4ccccc4F)c(Cl)c3OC[C@H]2C1 [Z502-1, (6aR)-8-acryloyl-4-chloro-1-(3-(dimethylamino)-2,2-dimethylpyrrolidin-1-yl)-3-(2-fluorophenyl)-6,6a,7,8,9,10-hexahydro-12H-pyrazino[2,1-c]pyrido[3,4-f][1,4]oxazepin-12(6aH)-one]		0.0296 µM
C=CC(=O)N1CCN2C(=O)c3c(N4C[C@H](N5CCN(C)CC5)CC4(C)C)nc(-c4c(F)cccc4Cl)c(Cl)c3OC[C@H]2C1 (single isomer, unassigned) [Z635-2]		0.007 µM
C=CC(=O)N1CCN2C(=O)c3c(N4CCN(C)[C@@H](C)[C@H]4C)nc(-c4ccccc4F)c(Cl)c3OC[C@H]2C1 (single isomer, unassigned) [Z465-1]		0.013 µM
C=CC(=O)N1CCN2C(=O)c3c(N4C[C@@H](N(C)CCO)CC4(C)C)nc(-c4ccccc4F)c(Cl)c3OC[C@H]2C1 (single isomer, unassigned) [Z658-1]		0.001 µM
C=CC(=O)N1CCN2C(=O)c3c(N4C[C@@H](N5CCN(C)CC5)CC4(C)C)nc(-c4c(F)cccc4Cl)c(Cl)c3OC[C@H]2C1 (single isomer, unassigned) [Z635-1]		0.0008 µM
C=CC(=O)N1CCN2C(=O)c3c(N4C[C@@H](N(C)C)CC4(C)C)nc(-c4cccc(F)c4F)c(Cl)c3OC[C@H]2C1 [Z473-1, (R)-8-acryloyl-4-chloro-3-(2,3-difluorophenyl)-1-((S)-4-(dimethylamino)-2,2-dimethylpyrrolidin-1-yl)-6,6a,7,8,9,10-hexahydro-12H-pyrazino[2,1-c]pyrido[3,4-f][1,4]oxazepin-12-one]		0.022 µM
C=CC(=O)N1CCN2C(=O)c3c(N4C[C@H](N5CCC5)CC4(C)C)nc(-c4ccccc4F)c(Cl)c3OC[C@H]2C1 (single isomer, unassigned) [Z471-2]		0.091 µM

Reference: patent US20230203060A1 (GENFLEET THERAPEUTICS (SHANGHAI) INC., priority 2020, published 2023)
